Measurements taken from patent publication US8138168B1 (Takeda Pharmaceutical Company Limited, priority 2007, dated 2012).

Target: T1, Recombinant human renin (Homo sapiens, UniProt P00797)
T1 construct: isolate the active form (residues 67-406); made in house; host or cells: FreeStyle 293-F cells (transient expression of pcDNA3.1(+)/hREN)
T1 sequence (P00797 67-406): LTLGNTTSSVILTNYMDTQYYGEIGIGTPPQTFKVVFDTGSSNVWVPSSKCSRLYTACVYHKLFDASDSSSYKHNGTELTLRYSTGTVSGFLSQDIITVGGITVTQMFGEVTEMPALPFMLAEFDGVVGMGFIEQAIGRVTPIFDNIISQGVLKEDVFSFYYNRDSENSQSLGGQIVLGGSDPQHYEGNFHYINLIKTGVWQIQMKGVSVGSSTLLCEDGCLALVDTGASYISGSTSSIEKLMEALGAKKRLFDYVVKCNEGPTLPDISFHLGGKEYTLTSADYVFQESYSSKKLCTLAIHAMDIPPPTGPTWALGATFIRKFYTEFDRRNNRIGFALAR
Test: In vitro enzymatic activity assay of renin inhibitors (fluorogenic peptide substrate)
Assay type: biochemical
Conditions: read-out: IC50 of Exemplified Compounds Against Renin
Experimental: Test compounds in varying concentrations may be reacted with recombinant human renin in the presence of substrate, e.g., QXL520-γ-Abu-[…](HiLyteFluo488)-Arg-OH (Anaspec, San Jose, Calif.). […] Inhibition constants (IC50) may be calculated by non-linear curve fitting of the compound concentrations and fluorescence intensities to the standard IC50 equation.
Solutions of test compounds in varying concentrations mM final concentration) are prepared in dimethyl sulfoxide (DMSO) and then diluted into assay buffer comprising 50 mM Hepes, 1 mM EDTA, 1 mM DTT, 0.1 mg/mL BSA, 0.01% Brij35, pH 7.4. Alternatively, the assay can be performed with a high BSA concentration, wherein the buffer contains an additional 2% BSA.
Recombinant human renin (3 nM final concentration) is added to the dilutions and pre-incubated with the compounds for 10 minutes at 37° C. […] After pre-incubation, the reaction is initiated with of substrate QXL520-γ-Abu-[…](HiLyteFluo488)-Arg-OH (Anaspec, San Jose, Calif.). The final DMSO in the assay is 5%. The total volume of the reaction mixture is 20 μL, which can be placed on Greiner 384-well small volume plates.
The fluorescence intensity is determined upon the addition of substrate and determined again after incubation at 37° C. for one hour. The fluorescence intensity of a blank (no inhibition) using vehicle alone is also determined. Renin activity is linearly proportional to the change in fluorescence observed (final-initial).

Row | IC50 [nM] | Compound
1 | 100 to 1000 | COCCCn1c([C@@H]2CCCN(C(=O)[C@@H]3CN(C(=O)c4cccc(C(=O)OC)c4)C[C@H]3N)C2)nc2ccccc21 [Compound 377, methyl 3-((3S,4R)-3-amino-4-((R)-3-(1-(3-methoxypropyl)-1H-benzo[d]imidazol-2-yl)piperidine-1-carbonyl)pyrrolidine-1-carbonyl)benzoate]
2 | 100 to 1000 | COCCCn1c([C@@H]2CCCN(C(=O)C[C@H](N)CNC(=O)c3ccc(-c4cc(Cl)ccc4Cl)o3)C2)nc2ccccc21 [Compound 276, N-((S)-2-amino-4-((R)-3-(1-(3-methoxypropyl)-1H-benzo[d]imidazol-2-yl)piperidin-1-yl)-4-oxobutyl)-5-(2,5-dichlorophenyl)furan-2-carboxamide]
3 | > 1000 | COCCCn1c([C@@H]2CCCN(C(=O)[C@@H]3CN(C(=O)Nc4ccccc4OC)C[C@H]3N)C2)nc2ccccc21 [Compound 400, (3S,4R)-3-amino-N-(2-methoxyphenyl)-4-((R)-3-(1-(3-methoxypropyl)-1H-benzo[d]imidazol-2-yl)piperidine-1-carbonyl)pyrrolidine-1-carboxamide]
4 | > 1000 | COCCCn1c([C@@H]2CCCN(C(=O)[C@@H]3CN(C(=O)Nc4ccccc4)C[C@H]3N)C2)nc2ccccc21 [Compound 404, (3S,4R)-3-amino-4-((R)-3-(1-(3-methoxypropyl)-1H-benzo[d]imidazol-2-yl)piperidine-1-carbonyl)-N-phenylpyrrolidine-1-carboxamide]
5 | 100 to 1000 | COCCCn1c([C@@H]2CCCN(C(=O)C[C@H](N)Cc3ccc(-c4ccn[nH]4)cc3)C2)nc2ccccc21 [Compound 141, (R)-4-(4-(1H-pyrazol-5-yl)phenyl)-3-amino-1-((R)-3-(1-(3-methoxypropyl)-1H-benzo[d]imidazol-2-yl)piperidin-1-yl)butan-1-one]
6 | > 1000 | COCCCn1c([C@@H]2CCCN(C(=O)[C@@H]3CN(C(=O)c4ccccc4)C[C@H]3N)C2)nc2ccccc21 [Compound 385, ((3R,4S)-4-amino-1-benzoylpyrrolidin-3-yl)((R)-3-(1-(3-methoxypropyl)-1H-benzo[d]imidazol-2-yl)piperidin-1-yl)methanone]
7 | 100 to 1000 | COCCCn1c([C@@H]2CCCN(C(=O)C[C@H](N)CNC(=O)Nc3ccccc3OC(F)(F)F)C2)nc2ccccc21 [Compound 265, 1-((S)-2-amino-4-((R)-3-(1-(3-methoxypropyl)-1H-benzo[d]imidazol-2-yl)piperidin-1-yl)-4-oxobutyl)-3-(2-(trifluoromethoxy)phenyl)urea]
8 | 100 to 1000 | COCCCn1c([C@@H]2CCCN(C(=O)[C@@H]3CN(c4cccc(C#N)c4)C[C@H]3N)C2)nc2ccccc21 [Compound 507]
9 | > 1000 | COCCCn1c([C@@H]2CCCN(C(=O)[C@@H]3CN(S(=O)(=O)c4cc(Cl)ccc4OC)C[C@H]3N)C2)nc2ccccc21 [Compound 412, ((3R,4S)-4-amino-1-(5-chloro-2-methoxyphenylsulfonyl)pyrrolidin-3-yl)((R)-3-(1-(3-methoxypropyl)-1H-benzo[d]imidazol-2-yl)piperidin-1-yl)methanone]
10 | > 1000 | COCCCn1c([C@@H]2CCCN(C(=O)C[C@H](N)CNC(=O)Nc3ccccc3C(=O)OC)C2)nc2ccccc21 [Compound 329, methyl 2-(3-((S)-2-amino-4-((R)-3-(1-(3-methoxypropyl)-1H-benzo[d]imidazol-2-yl)piperidin-1-yl)-4-oxobutyl)ureido)benzoate]

Second part, the compound before the results:

Row | Compound | IC50 [nM]
11 | CC(=O)NCCn1c([C@@H]2CCCN(C(=O)C[C@H](N)Cc3ccc(-c4ccc5c(c4)OCCN5C)cc3)C2)nc2c(C)cccc21 [Compound 475, N-(2-(2-((R)-1-((R)-3-amino-4-(4-(4-methyl-3,4-dihydro-2H-benzo[b][1,4]oxazin-7-yl)phenyl)butanoyl)piperidin-3-yl)-4-methyl-1H-benzo[d]imidazol-1-yl)ethyl)acetamide] | 100 to 1000
12 | CC(=O)NCCn1c([C@@H]2CCCN(C(=O)C[C@H](N)Cc3ccc(-c4ccc5c(c4)OC(F)(F)O5)cc3)C2)nc2c(C)cccc21 [Compound 474, N-(2-(2-((R)-1-((R)-3-amino-4-(4-(2,2-difluorobenzo[d][1,3]dioxol-5-yl)phenyl)butanoyl)piperidin-3-yl)-4-methyl-1H-benzo[d]imidazol-1-yl)ethyl)acetamide] | 100 to 1000
13 | O=C(Nc1ccc(Cl)c(C(F)(F)F)c1)N1CCCC(c2nc3ccccc3[nH]2)C1 (stereo not shown) [Compound 7, 3-(1H-benzo[d]imidazol-2-yl)-N-(4-chloro-3-(trifluoromethyl)phenyl)piperidine-1-carboxamide] | > 1000
14 | COCCCn1c([C@@H]2CCCN(C(=O)C[C@H](N)Cc3ccc(-c4ccc(C(=O)NCCOC)cc4Cl)cc3)C2)nc2ccccc21 [Compound 193, 4′-((R)-2-amino-4-((R)-3-(1-(3-methoxypropyl)-1H-benzo[d]imidazol-2-yl)piperidin-1-yl)-4-oxobutyl)-2-chloro-N-(2-methoxyethyl)biphenyl-4-carboxamide] | < 100
15 | COCCCn1c([C@@H]2CCCN(C(=O)C[C@H](N)Cc3ccc(-c4ccc5c(c4)NC(=O)CO5)cc3)C2)nc2ccccc21 [Compound 438, 6-(4-((R)-2-amino-4-((R)-3-(1-(3-methoxypropyl)-1H-benzo[d]imidazol-2-yl)piperidin-1-yl)-4-oxobutyl)phenyl)-2H-benzo[b][1,4]oxazin-3(4H)-one] | < 100
16 | N[C@@H](CC(=O)N1CCC[C@@H](c2nc3ccccc3[nH]2)C1)Cc1ccc(-c2ccccc2)cc1 [Compound 71, (R)-1-((R)-3-(1H-benzo[d]imidazol-2-yl)piperidin-1-yl)-3-amino-4-(biphenyl-4-yl)butan-1-one] | > 1000
17 | NC(=O)CCn1c([C@@H]2CCCN(C(=O)C[C@H](N)Cc3ccc(-c4ccc5c(c4)OCCO5)cc3)C2)nc2ccccc21 [Compound 484, 3-(2-((R)-1-((R)-3-amino-4-(4-(2,3-dihydrobenzo[b][1,4]dioxin-6-yl)phenyl)butanoyl)piperidin-3-yl)-1H-benzo[d]imidazol-1-yl)propanamide] | > 1000
18 | COCCCn1c([C@@H]2CCCN(C(=O)C[C@H](N)Cc3ccc4ccccc4c3)C2)nc2ccc(C(C)C)cc21 [Compound 116, (R)-3-amino-1-((R)-3-(6-isopropyl-1-(3-methoxypropyl)-1H-benzo[d]imidazol-2-yl)piperidin-1-yl)-4-(naphthalen-2-yl)butan-1-one] | 100 to 1000
19 | COCCCn1c([C@@H]2CCCN(C(=O)C[C@H](N)Cc3ccc(-c4ccc(C(=O)N5CC[C@@H](O)C5)cc4)cc3)C2)nc2ccccc21 [Compound 185, (R)-3-amino-4-(4′-((R)-3-hydroxypyrrolidine-1-carbonyl)biphenyl-4-yl)-1-((R)-3-(1-(3-methoxypropyl)-1H-benzo[d]imidazol-2-yl)piperidin-1-yl)butan-1-one] | < 100
20 | COCCCn1c([C@@H]2CCCN(C(=O)C[C@H](N)CNC(=O)c3ccc(-c4ccsc4)cc3)C2)nc2ccccc21 [Compound 261, N-((S)-2-amino-4-((R)-3-(1-(3-methoxypropyl)-1H-benzo[d]imidazol-2-yl)piperidin-1-yl)-4-oxobutyl)-4-(thiophen-3-yl)benzamide] | < 100
21 | N[C@@H](CC(=O)N1CCCC(c2nc3ccccc3[nH]2)C1)Cc1ccc(Cl)c(Cl)c1 (stereo partly drawn) [Compound 36, (3R)-1-(3-(1H-benzo[d]imidazol-2-yl)piperidin-1-yl)-3-amino-4-(3,4-dichlorophenyl)butan-1-one] | > 1000
22 | CC(=O)NCCn1c([C@@H]2CCCN(C(=O)C[C@H](N)Cc3ccc(-c4ccc(N)nc4)cc3)C2)nc2ccccc21 [Compound 446, N-(2-(2-((R)-1-((R)-3-amino-4-(4-(6-aminopyridin-3-yl)phenyl)butanoyl)piperidin-3-yl)-1H-benzo[d]imidazol-1-yl)ethyl)acetamide] | 100 to 1000
23 | COCCCn1c([C@@H]2CCCN(C(=O)C[C@H](N)Cc3ccc(-c4ccnc(F)c4)cc3)C2)nc2ccccc21 [Compound 150, (R)-3-amino-4-(4-(2-fluoropyridin-4-yl)phenyl)-1-((R)-3-(1-(3-methoxypropyl)-1H-benzo[d]imidazol-2-yl)piperidin-1-yl)butan-1-one] | < 100
24 | Nc1ncc(-c2ccc(C[C@@H](N)CC(=O)N3CCC[C@@H](c4nc5ccccc5n4CCF)C3)cc2)cn1 [Compound 509, (R)-3-amino-4-(4-(2-aminopyrimidin-5-yl)phenyl)-1-((R)-3-(1-(2-fluoroethyl)-1H-benzo[d]imidazol-2-yl)piperidin-1-yl)butan-1-one] | 100 to 1000
25 | COc1cccc([C@@H](N)CC(=O)N2CCCC(c3nc4ccccc4[nH]3)C2)c1OC (stereo partly drawn) [Compound 28, (3S)-1-(3-(1H-benzo[d]imidazol-2-yl)piperidin-1-yl)-3-amino-3-(2,3-dimethoxyphenyl)propan-1-one] | > 1000
